Assay results published in US20090304692A1, “TRIAZINE COMPOUNDS AS PI3 KINASE AND MTOR INHIBITORS” (Wyeth, priority 2008, published 2009).
pIC50: −log10 of the molar value. Where two headings read alike, the source gives them in different places.

Columns and labels:
PI3K-α = PI3K-α (Homo sapiens, UniProt P42336); experiment: PI3K-alpha fluorescence polarization assay
[1] = tested on: human prostate LNCap tumor cell line; experiment: In vitro cell culture growth assay (MTS), LNCap; settings: read-out: IC50 LNCap
PI3K-γ = PI3K-γ (Homo sapiens, UniProt P48736); experiment: PI3K-gamma fluorescence polarization assay; settings: read-out: IC50 PI3Kγ
Sequence of PI3K-γ (P48736 whole entry, species assumed): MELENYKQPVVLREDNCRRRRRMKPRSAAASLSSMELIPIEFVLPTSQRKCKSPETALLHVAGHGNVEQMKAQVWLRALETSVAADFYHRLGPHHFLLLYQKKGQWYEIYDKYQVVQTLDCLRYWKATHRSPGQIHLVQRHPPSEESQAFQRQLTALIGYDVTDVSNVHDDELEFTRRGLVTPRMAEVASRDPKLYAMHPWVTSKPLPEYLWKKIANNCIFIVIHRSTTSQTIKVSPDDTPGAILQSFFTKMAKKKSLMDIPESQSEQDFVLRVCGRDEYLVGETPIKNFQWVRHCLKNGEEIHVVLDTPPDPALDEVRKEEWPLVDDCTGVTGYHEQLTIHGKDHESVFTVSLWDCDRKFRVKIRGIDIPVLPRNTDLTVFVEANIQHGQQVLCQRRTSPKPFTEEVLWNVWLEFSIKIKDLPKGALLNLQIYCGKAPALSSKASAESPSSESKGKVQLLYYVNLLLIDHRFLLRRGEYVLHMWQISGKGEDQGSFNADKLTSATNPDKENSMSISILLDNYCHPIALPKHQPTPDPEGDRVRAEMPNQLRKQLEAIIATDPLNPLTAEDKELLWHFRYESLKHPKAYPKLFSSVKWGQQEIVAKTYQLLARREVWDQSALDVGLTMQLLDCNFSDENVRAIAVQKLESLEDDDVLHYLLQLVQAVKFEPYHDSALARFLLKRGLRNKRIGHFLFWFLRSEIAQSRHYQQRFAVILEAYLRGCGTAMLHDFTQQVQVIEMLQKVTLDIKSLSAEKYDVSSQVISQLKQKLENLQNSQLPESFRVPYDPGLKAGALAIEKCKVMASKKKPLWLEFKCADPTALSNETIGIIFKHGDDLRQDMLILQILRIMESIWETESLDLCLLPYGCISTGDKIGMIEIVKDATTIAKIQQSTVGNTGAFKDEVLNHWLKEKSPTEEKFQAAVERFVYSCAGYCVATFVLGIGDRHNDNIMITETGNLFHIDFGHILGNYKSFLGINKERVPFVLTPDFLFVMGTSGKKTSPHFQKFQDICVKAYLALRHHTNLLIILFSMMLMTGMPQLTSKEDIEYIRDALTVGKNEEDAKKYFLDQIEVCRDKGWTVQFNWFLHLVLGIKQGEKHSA

Human mTOR (FLAG-TOR) = Human mTOR (FLAG-TOR) (Homo sapiens, UniProt P42345); experiment: mTOR kinase assay (DELFIA format, purified enzyme); format: biochemical; settings: read-out: IC50 mTOR
Sequence of Human mTOR (FLAG-TOR) (P42345 1360-2549 limits assumed): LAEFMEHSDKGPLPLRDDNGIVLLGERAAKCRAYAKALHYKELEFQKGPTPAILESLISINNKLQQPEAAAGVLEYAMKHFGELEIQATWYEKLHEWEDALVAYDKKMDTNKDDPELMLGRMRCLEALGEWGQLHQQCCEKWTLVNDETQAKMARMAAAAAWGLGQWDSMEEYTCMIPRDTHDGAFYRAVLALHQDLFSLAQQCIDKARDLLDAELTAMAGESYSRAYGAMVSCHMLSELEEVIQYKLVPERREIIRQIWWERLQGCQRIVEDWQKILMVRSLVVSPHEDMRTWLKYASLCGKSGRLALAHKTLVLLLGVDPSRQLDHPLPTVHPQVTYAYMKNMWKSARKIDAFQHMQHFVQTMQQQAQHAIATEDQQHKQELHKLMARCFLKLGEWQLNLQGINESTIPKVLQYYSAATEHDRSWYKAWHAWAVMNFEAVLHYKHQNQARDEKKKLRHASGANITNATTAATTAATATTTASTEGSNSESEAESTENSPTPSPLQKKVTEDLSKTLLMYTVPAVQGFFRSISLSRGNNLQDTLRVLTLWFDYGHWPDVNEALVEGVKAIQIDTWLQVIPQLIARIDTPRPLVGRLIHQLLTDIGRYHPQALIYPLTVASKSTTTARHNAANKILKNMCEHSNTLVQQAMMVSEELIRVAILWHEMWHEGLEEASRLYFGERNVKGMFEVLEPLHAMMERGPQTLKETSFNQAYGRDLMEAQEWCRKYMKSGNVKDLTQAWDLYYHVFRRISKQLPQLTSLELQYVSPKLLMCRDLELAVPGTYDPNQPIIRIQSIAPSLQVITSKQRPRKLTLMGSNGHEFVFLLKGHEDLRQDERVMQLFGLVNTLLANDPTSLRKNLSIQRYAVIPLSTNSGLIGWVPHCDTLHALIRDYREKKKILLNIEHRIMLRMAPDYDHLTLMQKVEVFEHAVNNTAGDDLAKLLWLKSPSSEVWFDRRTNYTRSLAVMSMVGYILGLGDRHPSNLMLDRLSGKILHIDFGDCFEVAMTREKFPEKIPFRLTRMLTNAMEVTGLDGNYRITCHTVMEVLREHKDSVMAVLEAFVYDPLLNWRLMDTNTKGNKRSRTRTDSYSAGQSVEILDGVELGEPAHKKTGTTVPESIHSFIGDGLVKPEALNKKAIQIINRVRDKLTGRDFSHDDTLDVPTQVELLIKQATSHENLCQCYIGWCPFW

[2] = MTS cell growth assay, three days after drug treatment

Sequence of PI3K-α (P42336 whole entry, species assumed): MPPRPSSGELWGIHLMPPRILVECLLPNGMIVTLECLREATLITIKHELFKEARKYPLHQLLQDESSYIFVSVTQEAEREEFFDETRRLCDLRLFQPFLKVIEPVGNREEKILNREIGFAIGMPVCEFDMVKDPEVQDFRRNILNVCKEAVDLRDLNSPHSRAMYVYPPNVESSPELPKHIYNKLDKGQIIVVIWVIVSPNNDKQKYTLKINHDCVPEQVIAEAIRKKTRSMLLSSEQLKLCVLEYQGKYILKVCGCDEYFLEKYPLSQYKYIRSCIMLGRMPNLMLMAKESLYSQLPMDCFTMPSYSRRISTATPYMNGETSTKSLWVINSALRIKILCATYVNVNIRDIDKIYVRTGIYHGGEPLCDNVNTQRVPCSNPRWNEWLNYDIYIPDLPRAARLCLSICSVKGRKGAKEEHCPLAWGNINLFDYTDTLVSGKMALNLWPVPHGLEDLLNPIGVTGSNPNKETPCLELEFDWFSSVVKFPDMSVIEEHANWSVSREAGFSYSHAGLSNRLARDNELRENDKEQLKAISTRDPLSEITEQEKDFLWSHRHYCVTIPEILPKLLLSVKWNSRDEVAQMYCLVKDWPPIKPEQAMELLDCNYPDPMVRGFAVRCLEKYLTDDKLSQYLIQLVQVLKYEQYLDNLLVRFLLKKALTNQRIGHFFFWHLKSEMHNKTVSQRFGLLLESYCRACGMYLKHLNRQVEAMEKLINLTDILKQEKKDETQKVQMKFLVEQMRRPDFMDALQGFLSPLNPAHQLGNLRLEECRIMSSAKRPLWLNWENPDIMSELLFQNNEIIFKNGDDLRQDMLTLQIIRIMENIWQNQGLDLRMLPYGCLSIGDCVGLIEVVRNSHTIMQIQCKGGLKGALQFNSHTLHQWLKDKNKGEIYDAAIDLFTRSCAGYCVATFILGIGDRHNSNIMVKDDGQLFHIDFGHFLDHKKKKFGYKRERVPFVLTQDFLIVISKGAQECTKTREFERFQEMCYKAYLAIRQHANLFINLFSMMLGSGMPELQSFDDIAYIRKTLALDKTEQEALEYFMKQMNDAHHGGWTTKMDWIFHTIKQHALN
Sequence of PI3K-α (P27986 whole entry partner, species assumed): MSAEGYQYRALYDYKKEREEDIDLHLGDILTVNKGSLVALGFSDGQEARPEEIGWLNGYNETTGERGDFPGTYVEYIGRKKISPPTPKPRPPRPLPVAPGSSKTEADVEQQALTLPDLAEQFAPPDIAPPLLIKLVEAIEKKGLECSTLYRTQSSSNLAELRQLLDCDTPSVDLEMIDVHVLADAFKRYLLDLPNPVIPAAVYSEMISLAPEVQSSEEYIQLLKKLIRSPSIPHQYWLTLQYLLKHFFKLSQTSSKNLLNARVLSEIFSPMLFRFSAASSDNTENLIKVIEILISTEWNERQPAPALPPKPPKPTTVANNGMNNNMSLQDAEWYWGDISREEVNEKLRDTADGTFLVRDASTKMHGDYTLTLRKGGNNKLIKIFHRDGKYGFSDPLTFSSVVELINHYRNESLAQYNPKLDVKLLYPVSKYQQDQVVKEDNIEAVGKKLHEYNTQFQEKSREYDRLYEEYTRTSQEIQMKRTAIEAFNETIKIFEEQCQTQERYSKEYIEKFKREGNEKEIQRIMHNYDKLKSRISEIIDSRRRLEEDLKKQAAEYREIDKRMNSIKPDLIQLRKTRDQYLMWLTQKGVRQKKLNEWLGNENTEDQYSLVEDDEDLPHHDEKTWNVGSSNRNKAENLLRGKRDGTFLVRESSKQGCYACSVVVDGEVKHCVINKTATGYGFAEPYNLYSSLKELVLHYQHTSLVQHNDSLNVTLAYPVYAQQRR

Molecule | pIC50 (PI3K-α; read-out: IC50 PI3Kα) | pIC50 [1, 2] | pIC50 (PI3K-γ) | pIC50 (Human mTOR (FLAG-TOR)) | pIC50 ([1]; Homo sapiens, LNCaP, 72 h) | pIC50 (PI3K-α) | pIC50 ([1]; MTS cell growth assay, three days after drug treatment, LNCap cells)
1-(4-(4-(3-oxa-8-azabicyclo[3.2.1]octan-8-yl)-6-(piperidin-4-ylamino)-1,3,5-triazin-2-yl)phenyl)-3-ethylurea [Example 361] | 5.22 | 8.66 | < 5.00 | 8.89 |  |  | 
1-(4-(4-(3-oxa-8-azabicyclo[3.2.1]octan-8-yl)-6-(piperidin-4-ylamino)-1,3,5-triazin-2-yl)phenyl)-3-ethylurea [Example 362] | 5.51 | 9.00 | < 5.00 | 9.13 |  |  | 
CNC(=O)Nc1ccc(-c2nc(N3CC4CCC(C3)O4)nc(N3CC4CCC(C3)O4)n2)cc1 [Example 26, 1-[4-(4,6-di-8-oxa-3-azabicyclo[3.2.1]oct-3-yl-1,3,5-triazin-2-yl)phenyl]-3-methylurea] | 6.17 |  |  | 8.60 | 6.72 |  | 
O=C(Nc1ccncc1)Nc1ccc(-c2nc(N3CCN(C(=O)c4ccncc4)CC3)nc(N3CC4CCC(C3)O4)n2)cc1 [Example 113, 1-{4-[4-(4-isonicotinoylpiperazin-1-yl)-6-(8-oxa-3-azabicyclo[3.2.1]oct-3-yl)-1,3,5-triazin-2-yl]phenyl}-3-pyridin-4-ylurea] |  |  |  | 8.43 | 6.92 |  | 
O=C(O)CNC1CCN(c2nc(-c3ccc(NC(=O)Nc4ccncc4)cc3)nc(N3CC4CCC(C3)O4)n2)CC1 [Example 128, 2-(1-(4-(8-oxa-3-azabicyclo[3.2.1]octan-3-yl)-6-(4-(3-pyridin-4-ylureido)phenyl)-1,3,5-triazin-2-yl)piperidin-4-ylamino)acetic acid] | 5.88 |  |  | 7.51 | 4.52 |  | 
FC(F)c1nc2ccccc2n1-c1nc(N2CC3CCC(C2)O3)nc(N2CC3CCC(C2)O3)n1 [Example 138, 2-(difluoromethyl)-1-(4,6-di-8-oxa-3-azabicyclo[3.2.1]oct-3-yl-1,3,5-triazin-2-yl)-1H-benzimidazole] |  |  |  | 7.36 | 6.17 |  | 
FC(F)c1nc2ccccc2n1-c1nc(N2CCOCC2)nc(N2CC3CCC(C2)O3)n1 [Example 139, 2-(difluoromethyl)-1-[4-morpholin-4-yl-6-(8-oxa-3-azabicyclo[3.2.1]oct-3-yl)-1,3,5-triazin-2-yl]-1H-benzimidazole] |  |  |  | 7.13 | 6.74 |  | 
CN1CCN(c2ccc(NC(=O)Nc3ccc(-c4nc(-c5ccc(NC(=O)NC6CC6)cc5)nc(N5CC6CCC(C5)O6)n4)cc3)cc2)CC1 [Example 146, 1-cyclopropyl-3-(4-{4-[4-({[4-(4-methylpiperazin-1-yl)phenyl]carbamoyl}amino)phenyl]-6-(8-oxa-3-azabicyclo[3.2.1]oct-3-yl)-1,3,5-triazin-2-yl}phenyl)urea] |  |  |  | 8.52 | 8.30 | < 5.00 | 
O=C(Nc1ccc(-c2nc(NCCO)nc(N3CC4CCC(C3)O4)n2)cc1)Nc1cccnc1 [Example 153, 1-(4-{4-[(2-hydroxyethyl)amino]-6-(8-oxa-3-azabicyclo[3.2.1]oct-3-yl)-1,3,5-triazin-2-yl}phenyl)-3-pyridin-3-ylurea] | 6.06 |  |  | 7.82 | 5.38 |  | 
NCCCNc1nc(-c2ccc(NC(=O)Nc3cccnc3)cc2)nc(N2CC3CCC(C2)O3)n1 [Example 156, 1-(4-{4-[(3-aminopropyl)amino]-6-(8-oxa-3-azabicyclo[3.2.1]oct-3-yl)-1,3,5-triazin-2-yl}phenyl)-3-pyridin-3-ylurea] | 6.13 |  |  | 7.28 | 4.66 |  | 
CN1CCCN(c2nc(-c3ccc(NC(=O)Nc4cccnc4)cc3)nc(N3CC4CCC(C3)O4)n2)C1 [Example 172, 1-{4-[4-(3-methyltetrahydropyrimidin-1(2H)-yl)-6-(8-oxa-3-azabicyclo[3.2.1]oct-3-yl)-1,3,5-triazin-2-yl]phenyl}-3-pyridin-3-ylurea] | 6.36 |  |  | 8.10 | 5.02 |  | 
O=C(Nc1ccc(-c2nc(OCCN3CCCCC3)nc(N3CC4CCC(C3)O4)n2)cc1)Nc1cccnc1 [Example 173, 1-{4-[4-(8-oxa-3-azabicyclo[3.2.1]oct-3-yl)-6-(2-piperidin-1-ylethoxy)-1,3,5-triazin-2-yl]phenyl}-3-pyridin-3-ylurea] | 5.92 |  |  | 7.08 | 5.60 |  | 
CCN(CC)c1nc(-c2ccc(NC(=O)Nc3cccnc3)cc2)nc(N2CC3CCC(C2)O3)n1 [Example 194, 1-{4-[4-(diethylamino)-6-(8-oxa-3-azabicyclo[3.2.1]oct-3-yl)-1,3,5-triazin-2-yl]phenyl}-3-pyridin-3-ylurea] |  |  |  | 7.57 | 6.22 |  | 
CCN(C)c1nc(-c2ccc(NC(=O)Nc3cccnc3)cc2)nc(N2CC3CCC(C2)O3)n1 [Example 202, 1-(4-{4-[ethyl(methyl)amino]-6-(8-oxa-3-azabicyclo[3.2.1]oct-3-yl)-1,3,5-triazin-2-yl}phenyl)-3-pyridin-3-ylurea] |  |  |  | 8.26 | 6.15 |  | 
CCC(C)Nc1nc(-c2ccc(NC(=O)Nc3cccnc3)cc2)nc(N2CC3CCC(C2)O3)n1 (stereo not shown) [Example 203, 1-{4-[4-(sec-butylamino)-6-(8-oxa-3-azabicyclo[3.2.1]oct-3-yl)-1,3,5-triazin-2-yl]phenyl}-3-pyridin-3-ylurea] |  |  |  | 9.00 | 7.11 |  | 
O=C(Nc1ccc(-c2nc(NC(CO)CO)nc(N3CC4CCC(C3)O4)n2)cc1)Nc1cccnc1 [Example 204, 1-{4-[4-{[2-hydroxy-1-(hydroxymethyl)ethyl]amino}-6-(8-oxa-3-azabicyclo[3.2.1]oct-3-yl)-1,3,5-triazin-2-yl]phenyl}-3-pyridin-3-ylurea] |  |  |  | 8.46 | 5.22 |  | 
O=C(Nc1ccc(-c2nc(N(CCO)CCO)nc(N3CC4CCC(C3)O4)n2)cc1)Nc1cccnc1 [Example 205, 1-(4-{4-[bis(2-hydroxyethyl)amino]-6-(8-oxa-3-azabicyclo[3.2.1]oct-3-yl)-1,3,5-triazin-2-yl}phenyl)-3-pyridin-3-ylurea] |  |  |  | 8.70 | 6.40 |  | 
O=C(Nc1ccc(-c2nc(N3CC4CCC(C3)O4)nc(N3C[C@@H]4C[C@H]3CN4)n2)cc1)Nc1cccnc1 [Example 206, 1-(4-{4-[(1S,4S)-2,5-diazabicyclo[2.2.1]hept-2-yl]-6-(8-oxa-3-azabicyclo[3.2.1]oct-3-yl)-1,3,5-triazin-2-yl}phenyl)-3-pyridin-3-ylurea] |  |  |  | 7.25 | 5.29 |  | 
CN1CCN(c2ccc(Nc3nc(-c4ccc(NC(=O)Nc5cccnc5)cc4)nc(N4CC5CCC(C4)O5)n3)cc2)CC1 [Example 207, 1-{4-[4-{[4-(4-methylpiperazin-1-yl)phenyl]amino}-6-(8-oxa-3-azabicyclo[3.2.1]oct-3-yl)-1,3,5-triazin-2-yl]phenyl}-3-pyridin-3-ylurea] |  |  |  | 9.08 | 7.48 |  | 
O=C(Nc1ccc(-c2nc(Nc3ccc(N4CCNCC4)cc3)nc(N3CC4CCC(C3)O4)n2)cc1)Nc1cccnc1 [Example 208, 1-(4-{4-(8-oxa-3-azabicyclo[3.2.1]oct-3-yl)-6-[(4-piperazin-1-ylphenyl)amino]-1,3,5-triazin-2-yl}phenyl)-3-pyridin-3-ylurea] |  |  |  | 9.30 | 7.30 |  | 
CC(C)Nc1nc(-c2ccc(NC(=O)NC3CC3)cc2)nc(N2CC3CCC(C2)O3)n1 [Example 213, 1-cyclopropyl-3-(4-{4-[(1-methylethyl)amino]-6-(8-oxa-3-azabicyclo[3.2.1]oct-3-yl)-1,3,5-triazin-2-yl}phenyl)urea] | 5.28 |  |  | 8.02 | 6.38 |  | 
CC(C)Nc1nc(-c2ccc(NC(=O)NCCO)cc2)nc(N2CC3CCC(C2)O3)n1 [Example 214, 1-(2-hydroxyethyl)-3-(4-{4-[(1-methylethyl)amino]-6-(8-oxa-3-azabicyclo[3.2.1]oct-3-yl)-1,3,5-triazin-2-yl}phenyl)urea] | 5.57 |  |  | 8.54 | 6.15 |  | 
CN1CCN(c2ccc(NC(=O)Nc3ccc(-c4nc(N5CC6CCC(C5)O6)nc(N5C6CCC5COC6)n4)cc3)cc2)CC1 [Example 303, 1-[4-(4-methylpiperazin-1-yl)phenyl]-3-{4-[4-(3-oxa-8-azabicyclo[3.2.1]oct-8-yl)-6-(8-oxa-3-azabicyclo[3.2.1]oct-3-yl)-1,3,5-triazin-2-yl]phenyl}urea] |  |  |  | 7.77 | 9.10 |  | 
CN(C)CCOc1ccc(NC(=O)Nc2ccc(-c3nc(N4CCSCC4)nc(N4C5CCC4COC5)n3)cc2)cc1 [Example 365, 1-(4-(4-(3-oxa-8-azabicyclo[3.2.1]octan-8-yl)-6-thiomorpholino-1,3,5-triazin-2-yl)phenyl)-3-(4-(2-(dimethylamino)ethoxy)phenyl)urea] |  |  |  | 8.00 | 6.55 |  | 
CNC(=O)Nc1ccc(-c2nc(-c3ccc(NC(=O)Nc4cccc(C(N)=O)c4)cc3)nc(N3CCOCC3)n2)cc1 [Example 466, 3-({[4-(4-{4-[(methylcarbamoyl)amino]phenyl}-6-morpholin-4-yl-1,3,5-triazin-2-yl)phenyl]carbamoyl}amino) benzamide] |  |  |  | 9.00 |  |  | 6.38
CNC(=O)Nc1ccc(-c2nc(-c3ccc(NC(=O)Nc4cccnc4)cc3)nc(N3CCOCC3)n2)cc1 [Example 467, 1-methyl-3-[4-(4-morpholin-4-yl-6-{4-[(pyridin-3-ylcarbamoyl)amino]phenyl}-1,3,5-triazin-2-yl)phenyl]urea] |  |  |  | > 9.00 | 6.77 |  | 
CNC(=O)Nc1ccc(-c2nc(-c3ccc(NC(=O)Nc4ccncc4)cc3)nc(N3CCOCC3)n2)cc1 [Example 468, 1-methyl-3-[4-(4-morpholin-4-yl-6-{4-[(pyridin-4-ylcarbamoyl)amino]phenyl}-1,3,5-triazin-2-yl)phenyl]urea] |  |  |  | > 9.00 | 7.30 |  | 
